We go through 5 compounds from patent US11746087B1, “C4-carboxylic acid-substituted tryptamine derivatives and methods of using” (priority 2022, dated 2023).

The target of one series is T1, ADRA1A (Homo sapiens, UniProt P35348).
T1 sequence (P35348 1-466): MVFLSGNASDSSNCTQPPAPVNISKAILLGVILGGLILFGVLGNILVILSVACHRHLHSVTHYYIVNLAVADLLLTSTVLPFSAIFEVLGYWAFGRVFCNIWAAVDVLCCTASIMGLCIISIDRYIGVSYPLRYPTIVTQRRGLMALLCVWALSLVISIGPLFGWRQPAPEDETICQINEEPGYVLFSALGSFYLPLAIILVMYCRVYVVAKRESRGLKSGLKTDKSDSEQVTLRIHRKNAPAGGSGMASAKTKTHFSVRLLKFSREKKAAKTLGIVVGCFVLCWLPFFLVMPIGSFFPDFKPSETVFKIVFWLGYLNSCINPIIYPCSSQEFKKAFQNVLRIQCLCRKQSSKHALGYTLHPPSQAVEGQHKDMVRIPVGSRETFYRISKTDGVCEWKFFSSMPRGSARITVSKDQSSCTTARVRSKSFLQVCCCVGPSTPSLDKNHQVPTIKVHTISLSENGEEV
Put plainly: Calcium secondary messenger assay, agonist mode. It is filed as cell-based.

A further series addresses T2, HTR1A (5-HT1A) (Homo sapiens, UniProt P08908).
T2 sequence (P08908 1-422): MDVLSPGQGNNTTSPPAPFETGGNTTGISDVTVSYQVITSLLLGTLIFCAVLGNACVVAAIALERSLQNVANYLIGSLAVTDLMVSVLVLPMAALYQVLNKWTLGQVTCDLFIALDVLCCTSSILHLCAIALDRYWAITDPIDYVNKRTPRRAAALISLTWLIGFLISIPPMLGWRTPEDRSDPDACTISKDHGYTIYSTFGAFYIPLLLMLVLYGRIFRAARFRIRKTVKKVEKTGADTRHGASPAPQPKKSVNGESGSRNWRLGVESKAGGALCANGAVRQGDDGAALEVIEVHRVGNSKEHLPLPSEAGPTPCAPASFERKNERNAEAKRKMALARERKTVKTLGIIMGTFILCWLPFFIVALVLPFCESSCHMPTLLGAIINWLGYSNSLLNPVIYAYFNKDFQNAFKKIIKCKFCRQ
Put plainly: EFC-based cAMP secondary messenger assay, agonist mode. It counts as cell-based.

In another series the target is SERT (Homo sapiens, UniProt P31645). Put plainly: cell-based. To be noted: transporter.
Chain of SERT (P31645 whole entry): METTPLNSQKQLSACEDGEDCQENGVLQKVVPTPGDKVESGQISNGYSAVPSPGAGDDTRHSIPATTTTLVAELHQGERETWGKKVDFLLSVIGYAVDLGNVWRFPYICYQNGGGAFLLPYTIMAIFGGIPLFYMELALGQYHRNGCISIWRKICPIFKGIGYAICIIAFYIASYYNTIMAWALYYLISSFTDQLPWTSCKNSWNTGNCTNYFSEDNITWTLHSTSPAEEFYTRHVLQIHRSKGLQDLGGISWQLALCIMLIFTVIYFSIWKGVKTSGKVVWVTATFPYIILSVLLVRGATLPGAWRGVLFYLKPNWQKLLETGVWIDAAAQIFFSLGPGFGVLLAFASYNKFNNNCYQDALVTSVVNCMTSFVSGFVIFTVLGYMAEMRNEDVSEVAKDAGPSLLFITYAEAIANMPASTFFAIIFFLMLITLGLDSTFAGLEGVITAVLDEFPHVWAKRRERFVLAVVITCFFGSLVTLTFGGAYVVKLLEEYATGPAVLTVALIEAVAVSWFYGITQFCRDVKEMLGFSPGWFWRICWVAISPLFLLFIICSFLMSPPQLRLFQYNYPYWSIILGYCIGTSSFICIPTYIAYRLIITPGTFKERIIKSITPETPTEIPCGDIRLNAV
A further series addresses AVPR1A (Homo sapiens, UniProt P37288). Put plainly: Calcium secondary messenger assay, antagonist mode. It counts as cell-based.
The next series addresses OPRD1 (Homo sapiens, UniProt P41143). Put plainly: EFC-based cAMP secondary messenger assay, antagonist mode. It is filed as cell-based.
The next series concerns the target NMDAR (Homo sapiens, UniProt Q05586+Q13224). Put plainly: Ion channel assay (FLIPR membrane potential), opener. It is filed as cell-based.
The target in the next series is T3, ADRA2A (Homo sapiens, UniProt P08913).
T3 sequence (P08913 1-465): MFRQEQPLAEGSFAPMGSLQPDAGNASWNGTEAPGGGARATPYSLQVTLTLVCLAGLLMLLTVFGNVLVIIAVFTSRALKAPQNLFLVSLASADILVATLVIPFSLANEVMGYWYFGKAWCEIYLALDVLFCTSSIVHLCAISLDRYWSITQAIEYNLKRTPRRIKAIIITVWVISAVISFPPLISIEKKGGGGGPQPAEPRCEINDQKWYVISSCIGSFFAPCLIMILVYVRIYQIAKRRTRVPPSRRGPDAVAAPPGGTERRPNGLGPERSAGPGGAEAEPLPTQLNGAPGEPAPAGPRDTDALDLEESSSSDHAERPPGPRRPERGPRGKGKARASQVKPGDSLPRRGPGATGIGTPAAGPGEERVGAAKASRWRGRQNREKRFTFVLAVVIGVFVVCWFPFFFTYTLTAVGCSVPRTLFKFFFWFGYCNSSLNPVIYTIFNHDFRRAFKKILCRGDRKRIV
In words: EFC-based cAMP secondary messenger assay, antagonist mode. It is filed as cell-based.

Another series has as its target DRD1 (Homo sapiens, UniProt P21728). Put plainly: EFC-based cAMP secondary messenger assay, agonist mode. It is filed as cell-based.
The target of series [1] is T4, DRD2S (Homo sapiens, UniProt P14416). The description is as above. It is filed as cell-based.
T4 sequence (P14416 1-414 isoform P14416-2): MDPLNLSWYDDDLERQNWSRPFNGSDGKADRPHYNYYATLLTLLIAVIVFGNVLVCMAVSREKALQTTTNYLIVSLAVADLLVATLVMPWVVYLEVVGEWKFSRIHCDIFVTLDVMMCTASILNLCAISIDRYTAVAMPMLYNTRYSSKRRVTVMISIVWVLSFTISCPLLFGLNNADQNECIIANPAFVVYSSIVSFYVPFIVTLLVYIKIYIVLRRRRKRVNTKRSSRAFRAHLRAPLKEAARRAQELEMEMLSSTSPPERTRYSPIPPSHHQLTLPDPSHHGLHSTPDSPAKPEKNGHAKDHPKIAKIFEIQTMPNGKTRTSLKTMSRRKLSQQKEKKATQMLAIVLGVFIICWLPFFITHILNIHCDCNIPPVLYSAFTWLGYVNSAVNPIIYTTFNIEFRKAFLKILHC
Series [2] has as its target T4, DRD2S. Put plainly: EFC-based cAMP secondary messenger assay, antagonist mode. It counts as cell-based.
The target in a further series is DAT (Homo sapiens, UniProt Q01959). In words: Neurotransmitter transporter uptake assay, blocker. It counts as cell-based.
Chain of DAT (Q01959 whole entry): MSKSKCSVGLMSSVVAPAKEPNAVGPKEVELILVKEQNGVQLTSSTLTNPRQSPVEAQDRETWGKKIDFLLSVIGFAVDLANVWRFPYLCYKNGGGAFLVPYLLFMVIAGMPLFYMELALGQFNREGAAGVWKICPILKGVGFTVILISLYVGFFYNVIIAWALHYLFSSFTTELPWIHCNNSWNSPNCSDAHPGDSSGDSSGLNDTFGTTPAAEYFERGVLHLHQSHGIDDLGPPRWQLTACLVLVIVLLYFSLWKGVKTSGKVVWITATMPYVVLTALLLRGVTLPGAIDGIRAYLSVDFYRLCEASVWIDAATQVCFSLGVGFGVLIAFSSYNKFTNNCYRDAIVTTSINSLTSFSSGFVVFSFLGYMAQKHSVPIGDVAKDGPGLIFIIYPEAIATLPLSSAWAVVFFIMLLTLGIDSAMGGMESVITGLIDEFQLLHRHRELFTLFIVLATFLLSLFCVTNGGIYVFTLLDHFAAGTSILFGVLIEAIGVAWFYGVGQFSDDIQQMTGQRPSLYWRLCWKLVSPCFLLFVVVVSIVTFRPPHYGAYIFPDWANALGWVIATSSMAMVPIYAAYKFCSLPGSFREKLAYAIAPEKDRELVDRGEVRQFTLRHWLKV
In the next series the target is HTR2B (5-HT2B) (Homo sapiens, UniProt P41595). In words: Calcium secondary messenger assay, agonist mode. It is filed as cell-based.
Chain of HTR2B (5-HT2B) (P41595 whole entry): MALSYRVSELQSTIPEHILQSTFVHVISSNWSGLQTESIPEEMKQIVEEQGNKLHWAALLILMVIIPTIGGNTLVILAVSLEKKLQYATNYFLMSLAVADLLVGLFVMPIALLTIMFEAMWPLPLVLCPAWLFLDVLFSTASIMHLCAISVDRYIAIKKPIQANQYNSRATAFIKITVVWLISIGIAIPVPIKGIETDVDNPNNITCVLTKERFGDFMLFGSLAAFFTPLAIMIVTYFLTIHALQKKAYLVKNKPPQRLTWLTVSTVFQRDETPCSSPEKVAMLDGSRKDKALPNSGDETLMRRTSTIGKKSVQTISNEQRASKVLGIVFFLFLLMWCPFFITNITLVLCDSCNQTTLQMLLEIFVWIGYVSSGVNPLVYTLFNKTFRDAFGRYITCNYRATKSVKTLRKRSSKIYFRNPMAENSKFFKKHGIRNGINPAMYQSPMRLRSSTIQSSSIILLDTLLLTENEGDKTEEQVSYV
For a further series, the target named is T5, HTR3A (5-HT3A) (Homo sapiens, UniProt P46098).
T5 sequence (P46098 24-478): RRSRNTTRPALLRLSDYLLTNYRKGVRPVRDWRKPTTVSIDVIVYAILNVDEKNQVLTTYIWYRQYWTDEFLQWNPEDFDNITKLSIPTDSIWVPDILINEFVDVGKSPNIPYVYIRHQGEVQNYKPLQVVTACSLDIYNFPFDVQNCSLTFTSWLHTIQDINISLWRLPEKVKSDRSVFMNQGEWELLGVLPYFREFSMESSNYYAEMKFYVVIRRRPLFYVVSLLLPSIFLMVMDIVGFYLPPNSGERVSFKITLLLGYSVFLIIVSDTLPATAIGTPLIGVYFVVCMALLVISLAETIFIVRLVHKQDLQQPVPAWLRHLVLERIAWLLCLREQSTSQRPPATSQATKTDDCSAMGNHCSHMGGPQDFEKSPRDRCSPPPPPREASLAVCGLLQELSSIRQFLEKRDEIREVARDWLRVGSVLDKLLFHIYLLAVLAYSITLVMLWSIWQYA
In words: Ion channel assay (FLIPR membrane potential), opener. It counts as cell-based.

Series [3] can be described thus: Dosing solution concentration by LC-MS (measured vs nominal). It is filed as physicochemical. The note with it: C(IV) nominal 0.1 mg/mL. As to the method:
Briefly, the procedure was as follows. […] 19, 2022.
Pharmacokinetic (PK) evaluations were performed in the same manner as described in Example 1, except compound C(IV) was used in place of compound C(V). […] Thus, only psilocin PK analysis was performed. […] Table 46 summarizes these “measured” concentrations along with corresponding “nominal” concentrations for each dosing solution. Results for psilocin PK following C(IV) administration are found in Tables 47A-47B (0.293 mg/kg IV dose), Tables 48A-48B (0.275 mg/kg oral dose), Tables 49A-49B (0.789 mg/kg oral dose), Tables 50A-50B (2.52 mg/kg oral dose), Table 51 (comparative summary for IV data), Table 52 (comparative summary for oral data), Table 53A (psilocin exposure) and FIGS. 10H (i) and 10H (ii).

Chain of DRD1 (P21728 whole entry): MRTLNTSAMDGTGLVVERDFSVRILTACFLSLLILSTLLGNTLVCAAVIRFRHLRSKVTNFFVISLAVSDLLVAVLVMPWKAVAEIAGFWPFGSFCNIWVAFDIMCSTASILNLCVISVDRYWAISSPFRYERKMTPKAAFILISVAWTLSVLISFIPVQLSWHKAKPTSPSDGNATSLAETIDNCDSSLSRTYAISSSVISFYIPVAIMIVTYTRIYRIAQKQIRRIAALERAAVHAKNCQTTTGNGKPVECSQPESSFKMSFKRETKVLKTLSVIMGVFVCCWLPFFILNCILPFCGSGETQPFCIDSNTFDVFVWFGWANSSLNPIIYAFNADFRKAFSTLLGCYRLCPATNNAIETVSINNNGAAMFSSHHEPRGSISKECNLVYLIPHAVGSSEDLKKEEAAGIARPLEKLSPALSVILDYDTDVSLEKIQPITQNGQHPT
Chain of AVPR1A (P37288 whole entry): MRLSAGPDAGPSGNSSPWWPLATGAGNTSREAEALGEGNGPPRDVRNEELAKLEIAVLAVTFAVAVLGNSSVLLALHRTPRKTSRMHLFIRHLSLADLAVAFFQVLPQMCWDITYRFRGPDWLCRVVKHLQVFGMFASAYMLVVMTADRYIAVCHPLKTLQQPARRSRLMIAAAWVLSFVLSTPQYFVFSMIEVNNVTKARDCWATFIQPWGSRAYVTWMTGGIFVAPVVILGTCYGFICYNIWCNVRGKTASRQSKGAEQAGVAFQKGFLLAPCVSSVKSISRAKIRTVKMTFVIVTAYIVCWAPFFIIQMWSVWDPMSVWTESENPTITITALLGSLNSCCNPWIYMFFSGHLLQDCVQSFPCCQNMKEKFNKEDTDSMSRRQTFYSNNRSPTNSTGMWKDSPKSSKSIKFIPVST
Chain of OPRD1 (P41143 whole entry): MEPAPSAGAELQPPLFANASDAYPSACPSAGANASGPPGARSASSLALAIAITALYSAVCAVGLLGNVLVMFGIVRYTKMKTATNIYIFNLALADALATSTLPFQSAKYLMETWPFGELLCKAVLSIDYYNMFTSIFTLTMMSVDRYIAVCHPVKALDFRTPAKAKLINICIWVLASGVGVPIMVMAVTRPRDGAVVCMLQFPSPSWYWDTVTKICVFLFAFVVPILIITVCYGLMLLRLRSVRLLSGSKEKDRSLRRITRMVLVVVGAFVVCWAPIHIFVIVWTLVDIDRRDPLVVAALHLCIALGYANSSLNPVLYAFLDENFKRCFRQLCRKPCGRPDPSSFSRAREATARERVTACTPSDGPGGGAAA
Chain of NMDAR (Q13224 27-1484, other chains not shown): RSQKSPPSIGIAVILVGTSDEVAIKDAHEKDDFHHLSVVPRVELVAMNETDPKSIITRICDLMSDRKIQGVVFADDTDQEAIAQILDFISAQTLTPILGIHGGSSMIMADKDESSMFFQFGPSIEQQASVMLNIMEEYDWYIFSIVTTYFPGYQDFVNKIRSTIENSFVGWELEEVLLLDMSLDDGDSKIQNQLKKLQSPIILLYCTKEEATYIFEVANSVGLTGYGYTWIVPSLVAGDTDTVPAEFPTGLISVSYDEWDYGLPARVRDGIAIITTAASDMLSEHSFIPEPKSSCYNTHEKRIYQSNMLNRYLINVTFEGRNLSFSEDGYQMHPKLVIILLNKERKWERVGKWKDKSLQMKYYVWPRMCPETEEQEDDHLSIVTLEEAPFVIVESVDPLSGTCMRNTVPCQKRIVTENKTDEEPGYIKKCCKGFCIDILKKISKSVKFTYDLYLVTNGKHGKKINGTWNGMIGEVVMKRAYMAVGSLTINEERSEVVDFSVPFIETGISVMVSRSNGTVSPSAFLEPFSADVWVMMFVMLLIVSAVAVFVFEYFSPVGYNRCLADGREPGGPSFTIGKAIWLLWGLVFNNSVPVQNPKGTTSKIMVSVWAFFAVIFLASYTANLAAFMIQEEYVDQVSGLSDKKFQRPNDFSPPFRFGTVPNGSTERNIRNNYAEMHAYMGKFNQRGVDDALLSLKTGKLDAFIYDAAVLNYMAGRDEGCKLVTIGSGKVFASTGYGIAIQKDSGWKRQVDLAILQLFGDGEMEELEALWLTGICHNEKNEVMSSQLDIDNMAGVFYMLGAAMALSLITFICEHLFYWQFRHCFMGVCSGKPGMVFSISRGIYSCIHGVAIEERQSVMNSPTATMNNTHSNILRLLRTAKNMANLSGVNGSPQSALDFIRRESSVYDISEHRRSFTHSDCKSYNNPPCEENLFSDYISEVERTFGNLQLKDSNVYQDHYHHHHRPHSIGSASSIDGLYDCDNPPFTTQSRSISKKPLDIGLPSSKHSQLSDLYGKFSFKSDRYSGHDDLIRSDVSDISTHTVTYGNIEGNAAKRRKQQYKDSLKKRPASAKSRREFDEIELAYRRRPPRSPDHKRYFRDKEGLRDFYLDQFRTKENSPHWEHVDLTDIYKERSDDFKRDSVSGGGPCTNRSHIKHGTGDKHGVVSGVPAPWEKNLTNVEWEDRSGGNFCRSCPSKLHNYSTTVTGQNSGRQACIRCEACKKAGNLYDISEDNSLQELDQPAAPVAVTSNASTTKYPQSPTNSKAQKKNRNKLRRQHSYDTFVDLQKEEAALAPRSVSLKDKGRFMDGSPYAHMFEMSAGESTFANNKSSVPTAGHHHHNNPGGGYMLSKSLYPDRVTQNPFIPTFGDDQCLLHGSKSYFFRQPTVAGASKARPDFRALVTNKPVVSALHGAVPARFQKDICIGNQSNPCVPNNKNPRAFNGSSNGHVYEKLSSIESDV

On to `CN(C)CCc1c[nH]c2cccc(OC(=O)c3ccc(Br)cc3)c12` [C(I)], for which the 50% effective concentration (EC50) (commonly the concentration that produces a half-maximal response) was above 100 µM on ADRA1A; above 100 µM at HTR1A (5-HT1A); above 100 µM on NMDAR; above 100 µM at DRD1; 83.4 µM at DRD2S [1]; above 100 µM at HTR2B (5-HT2B). This compound returned an EC50 at HTR3A (5-HT3A) above 100 µM. The IC50 (commonly the concentration at which inhibition is half-maximal) on SERT (BL (blocker)) was above 100 µM; at AVPR1A, above 100 µM; on OPRD1, above 100 µM; on ADRA2A, 18.4 µM; against DRD2S [2], 91.1 µM; at DAT, 42.4 µM.

For `CN(C)CCc1c[nH]c2cccc(OC(=O)CC3CC3)c12` [C(IV)], the EC50 on ADRA1A was above 100 µM; on HTR1A (5-HT1A), 5.56 µM; on NMDAR, above 100 µM; on DRD1 it was above 100 µM; at DRD2S [1] it was 1.4 µM; at HTR2B (5-HT2B), above 100 µM. On HTR3A (5-HT3A), this compound returned an EC50 above 100 µM. In addition, the IC50 is 67.9 µM at SERT (BL (blocker)); above 100 µM on AVPR1A; above 100 µM at OPRD1; above 100 µM on ADRA2A; above 100 µM against DRD2S [2]; above 100 µM against DAT. In addition, the “Psilocin, measured, in C(IV) residual dosing solution” value in [3] worked out at 0.00174 mg/mL.

On to `COc1ccc(C(=O)Oc2cccc3[nH]cc(CCN(C)C)c23)cc1` [C(V)], for which the EC50 is above 100 µM at ADRA1A; 7.08 µM on HTR1A (5-HT1A); above 100 µM on NMDAR; above 100 µM on DRD1; above 100 µM at DRD2S [1]; above 100 µM at HTR2B (5-HT2B). Besides, the EC50 at HTR3A (5-HT3A) was above 100 µM. For the same compound, the IC50 on SERT (blocker (BL)) is above 100 µM; on AVPR1A, above 100 µM; against OPRD1, above 100 µM; against ADRA2A, above 100 µM; at DRD2S [2], 1.78 µM; on DAT, above 100 µM.

On to `CN(C)CCc1c[nH]c2cccc(OC(=O)c3c(F)c(F)c(F)c(F)c3F)c12` [C(VI)], for which the EC50 on ADRA1A is 34.4 µM; on HTR1A (5-HT1A) it was 2.21 µM; at NMDAR, above 100 µM; on DRD1 it was above 100 µM; on DRD2S [1] it was 1.09 µM; at HTR2B (5-HT2B), above 100 µM. In addition, the EC50 on HTR3A (5-HT3A) is above 100 µM. Moreover, the IC50 against SERT (BL (blocker)) was 34.3 µM; at AVPR1A it was above 100 µM; on OPRD1 it was above 100 µM; at ADRA2A, above 100 µM; on DRD2S [2], above 100 µM; at DAT it was above 100 µM.

Regarding `CN(C)CCc1c[nH]c2cccc(OC(=O)c3cccc4c3OCCO4)c12` [C(XX)], the EC50 at ADRA1A is above 100 µM; at HTR1A (5-HT1A), 2.03 µM; on NMDAR, above 100 µM; at DRD1, above 100 µM; at DRD2S [1], 1.72 µM; at HTR2B (5-HT2B) it was above 100 µM. At HTR3A (5-HT3A), this compound came in with an EC50 above 100 µM. Further, the IC50 against SERT (BL (blocker)) is 14.7 µM; at AVPR1A, above 100 µM; against OPRD1, above 100 µM; against ADRA2A, 47.9 µM; against DRD2S [2], above 100 µM; on DAT, above 100 µM.
